Source: patent US20250101338A1, “BIOMASS DERIVED SURFACE-ACTIVE COMPOSITIONS AND PRODUCTS” (Cambridge Glycoscience Ltd, priority 2021, published 2025)

Columns and labels:
[1] = Water in oil emulsion stability test (Example 65); assay type: physicochemical; conditions: 0.5 mL water with 2 wt % substance + 1.5 mL sunflower oil, vortex 30 s, visual inspection
Experimental: 0.5 mL deionized water containing 2 wt % of the stated inventive or comparative compound was added to 1.5 mL commercial, food-grade sunflower oil, in a sample vial. The vials were each agitated with a IKA Vortex mixture for 30 seconds. The vials were left to stand and inspected visually for emulsion quality after 5 minutes, 1 hour, 4 hours and finally 24 h (FIG. 14 and FIG. 15). […] The results also show an unexpected increase in emulsifying performance for the inventive compositions comprising oligosaccharide mixture-derived surface-active agents (such as example 4-6 compositions) compared with those derived from a single monomeric sugar (xylose) alone (such as example 12 and 13 compositions).

[2] = Lipophilic substances solubilization test, lemongrass oil (Example 71); assay type: physicochemical; conditions: 2 mL of 5 wt % aqueous solution, stepwise addition of 2.5 μL, duplicate
Experimental: (§1) After each addition, the sample was agitated with a vortex mixture for 60 s and left to stand for 5 min. If no heterogenous phase was observed visually, the oil was said to be fully soluble. If a heterogenous, immiscible biphasic or emulsion was visible, then the saturation limit for that surface-active component was said to have been exceeded. Each surface-active composition was tested in duplicate.

[3] = Relative viscosity, gravity flow time (Example 74); assay type: physicochemical; conditions: 10 mL of 10 wt % sodium dodecyl sulfate + 0.3 g NaCl + 0.655 mL of 30 wt % test solution, 27° C., triplicate
Experimental: The time taken for precisely 3 mL of testing mixture to pass out of the […] by gravity was recorded. The test was repeated in triplicate. Averaged results are depicted in FIG. 20 and table 9. It was unexpected that example 11 composition recorded such high viscosity over example 14 composition, which differs by a slightly smaller alkyl chain (octyl instead of decyl).

[4] = Aqueous solubility noted at preparation; assay type: physicochemical; conditions: water, room temperature
Experimental: Solid N-decyl xylosylamine (7.6 g) was suspended in 2-propanol (60 mL) and triethylamine (2 equiv.) then acetic anhydride (1.6 equiv.) was added slowly. Stirring continued at ambient temperature for 10 h. Water (50 mL) was added, and the mixture stirred for 5 min. Dichloromethane (50 mL) was added and the phases separated. The aqueous phase was extracted with additional DCM. The combined organic phase washed with saturated aqueous NH4Cl solution, then the aqueous phase extracted with additional DCM. The combined organic phases were dried over anhydrous magnesium sulfate, filtered, then concentrated under reduced pressure to give a yellow oil. The oil was purified by FCC eluting with MeOH (2-15%) in DCM (120 g normal phase silica cartridge with wet loading). Fractions containing the product were combined and evaporated to dryness to give the desired product (4.1 g, 49%) as a yellow gum. LC-MS (Method A), Rt=1.69 min, [M+H]+=332.2. The gum product can be dissolved in water to form solutions of 50 wt % or greater.
The process was carried out in essentially the same manner as in Example 11 a) step (ii) but using the solid product of Example 11 reaction c) step (i) and the crude product was instead purified by FCC eluting with MeOH (2-13%) in DCM. There were obtained 1.4 g of cream gum product. LC-MS (Method A), Rt=1.87 min, [M+H]^+=360.5.

[5] = Flash foam generation test (Example 70); assay type: physicochemical; conditions: 20 mg in 4 mL deionized water (10 wt % [sic]), 2 mL shaken 30 s in 15 mL tube, duplicate average
Experimental: 20 mg of each surface-active composition for testing was dissolved in deionized water (4 mL) to give a 10 wt % solution, 2 mL was added to a 15 mL FALCON tube. Each falcon tube was secured in a holder before being vigorously shook for 30 seconds. The initial foam height and structure was noted. The foam height was then noted at 5 min, 10 min, 15 min, 30 min, 45 min, 1 hr and 2 hr after the initial measurement. The experiment was repeated in duplicate. Averaged results are depicted in table 5 and FIG. 11.

Zein = Zein solubilization test, irritation potential (Example 68); conditions: 25 mg zein in 1 mL of 1 wt % active surfactant solution, 30 min, BCA assay, triplicate
Experimental: Zein is a water-insoluble corn protein, structurally similar to keratin. The ability of a surfactant to solubilize zein is related to irritation potential. The more zein solubilized, the more irritating the product is deemed to be, according to this test. […] The solutions were centrifuged, and the protein concentration in the supernatant determined by BCA assay. Each surfactant was tested in triplicate. Protein content was determined from a bovine serum albumin (BSA) standard curve.

[6] = Lipophilic substances solubilization test, preservative P12 (Example 72); assay type: physicochemical; conditions: 2 mL of 5 wt % aqueous solution, stepwise addition of 10 μL, duplicate
Experimental: as §1, with “heterogenous phase” for “heterogenous, immiscible biphasic”

[7] = Dynamic foam tests (Example 69); assay type: physicochemical; conditions: 5 mL of 0.5 wt % aqueous solution, 40 cm^3 air bubbled at 17 cm^3/min
Experimental: The intensity and approximate decay-rate for the foaming behavior of the surface-active compositions in dilute aqueous solution was determined by dosing 5 mL of 0.5 wt % aqueous solution of surface-active composition to a vertically-aligned 50 m plastic serological pipette (“Stripette”). Air (40 cm^3) was bubbled through the surface-active composition solution at a rate of 17 cm^3/min via a syringe pump and the foam height upon complete addition of air recorded. The foam height was also recorded again 5 min after complete addition of air, 10 min after complete addition of air, 15 m after complete addition of air, 30 min after complete addition of air, 1 hour after complete addition of air and finally 2 hours after complete addition of air.

[8] = Critical micellular concentration determination (Example 78); assay type: physicochemical; conditions: deionized water
Experimental: Stock solutions were prepared of known weight concentration (range spanning 0.005 wt %-5.000 wt %) of inventive surface-active compositions (by solution of the appropriate weight of example composition in deionized water). For reference, the surface tension of deionized water in the absence of a surface-active composition is 73 mN. […] The surface tensions of the solutions at the concentration of the CMC were also noted. Results are shown in table 10 and graphical results are depicted in FIG. 22.

Row | Compound | Time inspected by which the emulsion first appeared dispersed [1] [h] | Maximum volume of lemongrass oil solubilized [2] [µL] | Average time (for 3 mL to pass out of the stripette by gravity) [3] [s] | Volume of foam after given time ([5]; 0 min) [cm^3] | Volume of foam after given time ([5]; 5 min) [cm^3] | Volume of foam after given time ([5]; 15 min) [cm^3] | Volume of foam after given time ([5]; 30 min) [cm^3] | Volume of foam after given time ([5]; 1 h) [cm^3] | Volume of foam after given time ([5]; 2 h) [cm^3] | other results
1 | CCCCCCCCCCCCCCN(C(C)=O)C1OC[C@@H](O)[C@H](O)[C@H]1O (stereo partly shown) [Example 12 composition, N-tetradecyl N-acetyl xylosylamine] | 1 | – | – | – | – | – | – | – | – | –
2 | O=C[C@H](O)[C@@H](O)[C@H](O)CO [Xylose, reference compound] | <0.083 | – | – | – | – | – | – | – | – | –
3 | CCCCCCCCN(C(C)=O)C1OC[C@@H](O)[C@H](O)[C@H]1O (stereo partly shown) [Example 14 composition, N-octyl N-acetyl xylosylamine] | 0.083 | 5.0 | 10.0 | – | – | – | – | – | – | –
4 | Lauryl glucoside | – | – | 1.9 | – | – | – | – | – | – | –
5 | CCCCCCCCCCCCN(C(C)=O)C1OC[C@@H](O)[C@H](O)[C@H]1O (stereo partly shown) [Example 13 composition, N-dodecyl N-acetyl xylosylamine] | 1 | 5.0 | – | – | – | – | – | – | – | Aqueous solubility (in words) [4]: only sparingly soluble
6 | Cocoamidopropyl betaine | – | – | 524.0 | – | – | – | – | – | – | –
7 | CCCCCCCCCCCCOS(=O)(=O)[O-].[Na+] [Sodium dodecyl sulfate, reference compound] | 1 | – | – | 15.0 | 15.0 | 15.0 | 15.0 | 15.0 | 14.0 | –
8 | CCCCCCCCCCO[C@@H]1O[C@H](CO)[C@@H](O)[C@H](O)[C@H]1O [Decyl glucoside, reference compound] | 24 | 2.5 | – | 12.0 | 12.0 | 11.8 | 11.5 | 11.5 | 11.0 | Resulting zein concentration solubilized (Zein): 1129 µg/mL; Maximum volume of preservative P12 solubilized [6]: 40 µL
9 | CCCCCCCCCCCCN(C(C)=O)C1O[C@H](CO)[C@@H](O[C@@H]2O[C@H](CO)[C@@H](O)[C@H](O)[C@H]2O)[C@H](O)[C@H]1O (stereo partly shown) [Example 23 composition, N-dodecyl N-acetyl cellobiosylamine] | – | – | – | 3.5 | 3.5 | 3.5 | 3.0 | 2.8 | 2.5 | Volume of foam after given time ([7]; 0 min): 38.5 cm^3; Volume of foam after given time ([7]; 5 min): 4.0 cm^3; Volume of foam after given time ([7]; 15 min): 4.0 cm^3; Volume of foam after given time ([7]; 30 min): 4.0 cm^3; Volume of foam after given time ([7]; 1 h): 3.0 cm^3; Volume of foam after given time ([7]; 2 h): 3.0 cm^3; Solution Surface tension at CMC [8]: 45 mN; CMC ([8]; from surface tension at 0.005-5.000 wt %): 0.03 wt %
10 | CCCCCCCCCCCCO[C@@H]1O[C@H](CO)[C@@H](O)[C@H](O)[C@H]1O [Dodecyl Glucoside, reference compound] | 12 | – | 4.0 | – | – | – | – | – | – | Volume of foam after given time ([7]; 0 min): 42.3 cm^3; Volume of foam after given time ([7]; 5 min): 42.3 cm^3; Volume of foam after given time ([7]; 15 min): 42.3 cm^3; Volume of foam after given time ([7]; 30 min): 42.3 cm^3; Volume of foam after given time ([7]; 1 h): 42.0 cm^3; Volume of foam after given time ([7]; 2 h): 42.0 cm^3
